The nature of series [1]: Permeability parameter across human erythrocyte ghost membrane was determined by using fluorescence intensity of 10 uM in presence of Diethylenetriamine-penta acetic acid (DTPA). The format is ADME. To be noted: erythrocytes.
Series [2] can be described thus: The fluorescent suspension followed by time was estimated in the absence of Diehtylenetriamine-penta acetic acid. The format is functional.
Another series is filed under the species Homo sapiens. In words: The fluorescent suspension followed by time was estimated in the presence of Diehtylenetriamine-penta acetic acid. The format is functional.
Series [3] in a line: Permeability parameter across human erythrocyte ghost membrane was determined by using fluorescence intensity of 10 uM in absence of Diethylenetriamine-penta acetic acid (DTPA). The format is ADME. To be noted: erythrocytes.

The structures appear in SMILES notation. Where “and” joins values, the source holds several entries; their conditions need not be identical. Equal entries are not always repeated.

On to `O=C1NCCn2cc(O)c(=O)cc21`, for which the Fluorescence in series [1] is 117 a.u; in series [3] it was 127 a.u and 65 a.u. The TIME was 0.03 h and 0.0786 h in series [2]; 0.0353 h in the series filed under Homo sapiens.
In the case of `Cc1cc2[nH]c(=O)c3cc(=O)c(O)cn3c2cc1C`, in series [1], the Fluorescence is reported as 252 a.u. Besides, the TIME in the series filed under Homo sapiens is 0.00667 h.

These data come from ChEMBL document CHEMBL1140362, “Novel iron-specific fluorescent probes” (Bioorg Med Chem Lett, 2005).
